Reference: PubChem BioAssay AID330 (DTP/NCI, 2004)
Where “and” joins values, the source holds several entries; their conditions need not be identical. Equal entries are not always repeated. Toxic doses and inconclusive results are not listed.

System: P388 leukemia ip, CD2F1 mice, survival T/C
Assay: NCI In Vivo Anticancer Drug Screen. Data for tumor model P388 Leukemia (intraperitoneal) in CD2F1 (CDF1) mice
Details: endpoint: median survival time, higher = longer survival
Method in brief: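 Mice carrying the transplanted tumor received test compound or vehicle. Survival was recorded in each group, and the value is the treated-group measurement divided by that of the vehicle-treated control group.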

[1] = dose: 50.0 mg/kg/injection, schedule: Q01DX009 (ip), vehicle: saline with Tween-80
[2] = dose: 100.0 mg/kg/injection, schedule: Q01DX009 (ip), vehicle: saline with Tween-80
[3] = dose: 200.0 mg/kg/injection, schedule: Q01DX009 (ip), vehicle: saline with Tween-80
[4] = dose: 60.0 mg/kg/injection, schedule: Q01DX005 (ip), vehicle: saline with Tween-80
[5] = dose: 120.0 mg/kg/injection, schedule: Q01DX005 (ip), vehicle: saline with Tween-80
[6] = dose: 100.0 mg/kg/injection, schedule: Q01DX001 (ip), vehicle: Klucel (hydroxypropylcellulose) (HPC)
[7] = dose: 200.0 mg/kg/injection, schedule: Q01DX001 (ip), vehicle: Klucel (hydroxypropylcellulose) (HPC)
[8] = dose: 400.0 mg/kg/injection, schedule: Q01DX001 (ip), vehicle: Klucel (hydroxypropylcellulose) (HPC)
[9] = dose: 60.0 mg/kg/injection, schedule: Q01DX005 (ip), vehicle: saline
[10] = dose: 120.0 mg/kg/injection, schedule: Q01DX005 (ip), vehicle: saline
[11] = dose: 50.0 mg/kg/injection, schedule: Q01DX009 (ip), vehicle: saline
[12] = dose: 100.0 mg/kg/injection, schedule: Q01DX009 (ip), vehicle: saline
[13] = dose: 200.0 mg/kg/injection, schedule: Q01DX009 (ip), vehicle: saline

CN(C)C1C(O)C2Oc3c(cc(O)c4c3C(=O)c3cc5c(c(O)c3C4=O)C(NC3CCCCC3)CC(C)(O)C5)C(C)(O2)C1O (configuration not stated)
T/C (dose: 2.5 mg/kg/injection, schedule: Q01DX009 (ip), vehicle: other): 102 % of control
T/C (dose: 5.0 mg/kg/injection, schedule: Q01DX009 (ip), vehicle: other): 105 % of control
T/C (dose: 10.0 mg/kg/injection, schedule: Q01DX009 (ip), vehicle: other): 112 % of control
T/C (dose: 40.0 mg/kg/injection, schedule: Q01DX009 (ip), vehicle: other): 121 % of control

O=C(O)c1cc(=O)n(CCCCCCn2c(=O)cc(C(=O)O)[nH]c2=O)c(=O)[nH]1
T/C [1]: 98 % of control
T/C [2]: 104 % of control
T/C [3]: 111 % of control

COC1/C=C/OC2(C)Oc3c(C)c(O)c4c(c3C2=O)C(N)=C(NC2CC2)C(=NC(=O)/C(C)=C\C=C\C(C)C(O)C(C)C(O)C(C)C(OC(C)=O)C1C)C4=O (configuration not stated)
T/C (dose: 25.0 mg/kg/injection, schedule: Q01DX009 (ip), vehicle: Klucel (hydroxypropylcellulose) (HPC)): 102 % of control
T/C (dose: 50.0 mg/kg/injection, schedule: Q01DX009 (ip), vehicle: Klucel (hydroxypropylcellulose) (HPC)): 103 % of control
T/C (dose: 100.0 mg/kg/injection, schedule: Q01DX009 (ip), vehicle: Klucel (hydroxypropylcellulose) (HPC)): 119 % of control

CC(O)/C(=N\Nc1ccccc1)c1nc2ccccc2[nH]c1=O (configuration not stated)
T/C (dose: 30.0 mg/kg/injection, schedule: Q01DX005 (ip), vehicle: saline with Tween-80): 92 % of control
T/C [4]: 89 % of control
T/C [5]: 88 % of control

N#Cc1[nH]nc2[nH]c(=S)[nH]c(=S)c12
T/C (dose: 100.0 mg/kg/injection, schedule: Q04DX002 (ip), vehicle: water): 113 % of control
T/C (dose: 200.0 mg/kg/injection, schedule: Q04DX002 (ip), vehicle: water): 110 % of control
T/C (dose: 400.0 mg/kg/injection, schedule: Q04DX002 (ip), vehicle: water): 102 % of control

Nc1nc2nn(Cc3ccc(Cl)c(Cl)c3)c(-c3ccc(Cl)c(Cl)c3)c2c(=O)[nH]1
T/C (dose: 100.0 mg/kg/injection, schedule: Q01DX001 (ip), vehicle: saline with Tween-80): 91 % of control
T/C (dose: 200.0 mg/kg/injection, schedule: Q01DX001 (ip), vehicle: saline with Tween-80): 97 % of control
T/C (dose: 400.0 mg/kg/injection, schedule: Q01DX001 (ip), vehicle: saline with Tween-80): 88 % of control

CC(C)=CC[P+](CCC[P+](CC=C(C)C)(c1ccccc1)c1ccccc1)(c1ccccc1)c1ccccc1
T/C (dose: 3.12 mg/kg/injection, schedule: Q01DX005 (ip), vehicle: saline with Tween-80): 106 % of control
T/C (dose: 6.25 mg/kg/injection, schedule: Q01DX005 (ip), vehicle: saline with Tween-80): 104 % of control
T/C (dose: 12.5 mg/kg/injection, schedule: Q01DX005 (ip), vehicle: saline with Tween-80): 98 % of control

CC(C)(C)OC(=O)NCCCCC(NC(=O)OCc1ccccc1)C(=O)ON1C(=O)CCC1=O (configuration not stated)
T/C (dose: 50.0 mg/kg/injection, schedule: Q01DX005 (ip), vehicle: saline with Tween-80): 101 % of control
T/C (dose: 100.0 mg/kg/injection, schedule: Q01DX005 (ip), vehicle: saline with Tween-80): 102 % of control
T/C (dose: 200.0 mg/kg/injection, schedule: Q01DX005 (ip), vehicle: saline with Tween-80): 107 % of control

CC(C)(C)c1nnc2cccc(Cl)n12
T/C [6]: 100 % of control
T/C [7]: 99 % of control
T/C [8]: 103 % of control

COc1ccc2c(c1)C(Cc1ccc(Oc3ccc(CC4c5cc(OC)ccc5CC[N+]4(C)C)cc3)cc1)[N+](C)(C)CC2 (configuration not stated)
T/C (dose: 1.56 mg/kg/injection, schedule: Q04DX003 (ip), vehicle: water): 107 % of control

O=C1C=C2C(=CCOC2O)O1 (configuration not stated)
T/C (dose: 0.3 mg/kg/injection, schedule: Q01DX009 (ip), vehicle: saline with Tween-80): 106 % of control
T/C (dose: 0.3 mg/kg/injection, schedule: Q04DX003 (ip), vehicle: saline with Tween-80): 106 % of control
T/C (dose: 1.0 mg/kg/injection, schedule: Q04DX003 (ip), vehicle: saline with Tween-80): 114 % of control
T/C (dose: 2.0 mg/kg/injection, schedule: Q01DX009 (ip), vehicle: Klucel (hydroxypropylcellulose) (HPC)): 117 % of control and 123 % of control
T/C (dose: 4.0 mg/kg/injection, schedule: Q01DX009 (ip), vehicle: Klucel (hydroxypropylcellulose) (HPC)): 106 % of control and 123 % of control
T/C (dose: 10.0 mg/kg/injection, schedule: Q04DX003 (ip), vehicle: saline with Tween-80): 113 % of control

CC(C)(C)c1cc(-c2cc(C(C)(C)C)nc(N)n2)nc(N)n1
T/C [9]: 87 % of control
T/C [10]: 105 % of control

CC(CCN(C)C)N(C)C (configuration not stated)
T/C (dose: 50.0 mg/kg/injection, schedule: Q01DX005 (ip), vehicle: suspension in saline): 106 % of control
T/C (dose: 100.0 mg/kg/injection, schedule: Q01DX005 (ip), vehicle: suspension in saline): 98 % of control

CN1CCC(/C=C/c2cccc3ccccc23)CN1 (configuration not stated) (tested in a mixture with another compound)
T/C [11]: 108 % of control
T/C [12]: 99 % of control

CCOc1ccc(C(C)c2cc3c(cc2OCC)OCO3)c(C)c1 (configuration not stated)
T/C (dose: 50.0 mg/kg/injection, schedule: Q01DX005 (ip), vehicle: Klucel (hydroxypropylcellulose) (HPC)): 109 % of control
T/C (dose: 100.0 mg/kg/injection, schedule: Q01DX005 (ip), vehicle: Klucel (hydroxypropylcellulose) (HPC)): 103 % of control
T/C (dose: 200.0 mg/kg/injection, schedule: Q01DX005 (ip), vehicle: Klucel (hydroxypropylcellulose) (HPC)): 112 % of control

Fc1cccc2c(SCCCCCSc3c4ccccc4nc4c(F)cccc34)c3ccccc3nc12
T/C (dose: 60.0 mg/kg/injection, schedule: Q01DX005 (ip), vehicle: Klucel (hydroxypropylcellulose) (HPC)): 93 % of control
T/C (dose: 120.0 mg/kg/injection, schedule: Q01DX005 (ip), vehicle: Klucel (hydroxypropylcellulose) (HPC)): 89 % of control

O=C1CCCCC(=O)CS(=O)(=O)C1
T/C [1]: 110 % of control
T/C [2]: 107 % of control
T/C [3]: 103 % of control

Clc1cccc2nnc(Br)n12
T/C (dose: 50.0 mg/kg/injection, schedule: Q01DX001 (ip), vehicle: Klucel (hydroxypropylcellulose) (HPC)): 98 % of control
T/C [6]: 102 % of control
T/C [7]: 111 % of control

CC(=O)CC(C)O (configuration not stated)
T/C [11]: 99 % of control
T/C [12]: 89 % of control
T/C [13]: 92 % of control

O=C(Cc1nc2ccccc2[nH]1)N/N=C1\SCC(=O)N1C1CCCCC1
T/C [6]: 98 % of control
T/C [7]: 100 % of control
T/C [8]: 99 % of control

CCCCN(CCO)CC(O)Cn1cnc2c(N)ncnc21 (configuration not stated) (tested in a mixture with another compound)
T/C [9]: 94 % of control
T/C [10]: 97 % of control
T/C (dose: 240.0 mg/kg/injection, schedule: Q01DX005 (ip), vehicle: saline): 94 % of control

CCN(CC)CCN=c1c(C)nc(C#N)c(N)n1O
T/C (dose: 10.0 mg/kg/injection, schedule: Q01DX009 (ip), vehicle: saline with Tween-80): 100 % of control and 102 % of control and 105 % of control
T/C (dose: 20.0 mg/kg/injection, schedule: Q01DX009 (ip), vehicle: saline with Tween-80): 100 % of control and 118 % of control and 96 % of control
T/C (dose: 40.0 mg/kg/injection, schedule: Q01DX009 (ip), vehicle: saline with Tween-80): 98 % of control and 103 % of control
T/C (dose: 80.0 mg/kg/injection, schedule: Q01DX009 (ip), vehicle: saline with Tween-80): 98 % of control and 106 % of control

S=C(Nc1ccc(N=Nc2ccccc2)cc1)SCc1ccc(Cl)cc1
T/C [11]: 97 % of control
T/C [12]: 103 % of control
T/C [13]: 100 % of control
T/C (dose: 200.0 mg/kg/injection, schedule: Q01DX009 (ip), vehicle: suspension in saline): 93 % of control

[Cl][Cr]([Cl])[Cl].[NH-]CC[N-]CC[NH-]
T/C [11]: 97 % of control
T/C [12]: 109 % of control
T/C [13]: 115 % of control

Cc1ccc(-n2c(=S)n(-c3ccccc3C)c3nc4ccccc4nc2/c3=N\Nc2ccccc2)cc1
T/C [4]: 100 % of control
T/C [5]: 93 % of control

Cc1cn(C)c2c1-c1oncc1CC2
T/C (dose: 100.0 mg/kg/injection, schedule: Q04DX003 (ip), vehicle: Klucel (hydroxypropylcellulose) (HPC)): 100 % of control
T/C (dose: 200.0 mg/kg/injection, schedule: Q04DX003 (ip), vehicle: Klucel (hydroxypropylcellulose) (HPC)): 100 % of control
T/C (dose: 400.0 mg/kg/injection, schedule: Q04DX003 (ip), vehicle: Klucel (hydroxypropylcellulose) (HPC)): 100 % of control
